Experimental data taken from patent US20260356849A1, “COMPOUNDS AND METHODS FOR TREATING CANCERS” (CEDARS-SINAI MEDICAL CENTER, priority 2022, published 2026).

Experiments:
Assay type in all cases: cell-based
mouse hepatocytes = assay: Toxicity in mouse hepatocytes; details: data not shown
Experimental: (§1) The inventors identified nine inhibitors and perfomed an EdU assay after treating non-malignant (HEK293, AML12) and malignant (HepG2, MzChA-1, HT-29, RKO) cells with varying concentrations of GIT1 inhibitor for 24 hours (results are mean±SE from 3 independent experiments done in duplicates, *p<0.05 vs. DMSO). An MTT assay was also performed after treating primary human and mouse hepatocytes and liver and colon cancer cells with varying concentrations of GIT1 inhibitor for 24 hours (results are mean±SE from 3 independent experiments done in duplicates, *p<0.05 vs. DMSO). […] Percoll may be used to remove dead human hepatocytes.

RKO cells = assay: MTT assay in RKO cells; details: Homo sapiens
Experimental: as §1

human hepatocytes = assay: Toxicity in human hepatocytes; details: data not shown
Experimental: as §1

HepG2 cells = assay: MTT assay in HepG2 cells; details: Homo sapiens
Experimental: as §1

| IC50 (HepG2 cells) [µM] | SMILES | toxicity in mouse hepatocytes (mouse hepatocytes) | IC50 (RKO cells) [µM] | toxicity in human hepatocytes (human hepatocytes) |
| --- | --- | --- | --- | --- |
| 0.83 | CC1(C)Cc2nc3sc4c(=O)n(CC(=O)N5CCOCC5)cnc4c3cc2CO1 [Compound C33] | no toxicity | 0.98 | no toxicity |
| > 50 | CC(=O)c1ccc(NC(=O)Cn2cnc3c(sc4nc5c(cc43)COC(C)(C)C5)c2=O)cc1 [Compound C38] | – | > 25 | – |
| > 25 | COc1cccc(NC(=O)Cn2cnc3c(sc4nc5c(cc43)COC(C)(C)C5)c2=O)c1 [Compound C39] | – | > 50 | – |
